Patent publication US20180148418A1, “AMIDO-SUBSTITUTED CYCLOHEXANE DERIVATIVES” (Bayer Pharma Aktiengesellschaft, priority 2015, published 2018)

Assays:
[1] = system: HEK293 cells cotransfected with the FOP control vector; experiment: HEK293 FOP assay (control reporter with non-functional TCF elements); format: cell-based; conditions: Homo sapiens, 16 hours
Procedure, shortened: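 Compound series from 50 μM down to 15 nM, prediluted in DMSO then 50-fold into CAFTY buffer (pH 7.4, 2 mM Ca2+, 0.01% BSA), tested alongside TOP cells on a Geneticin-selected HEK293 FOP line whose TCF elements are replaced by a random sequence; recombinant human Wnt-3a applied at 2500-5 ng/ml.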

[2] = target: T1, TNKS1 (Homo sapiens, UniProt O95271); experiment: TNKS1 Assay B (auto-parsylation, [3H]-NAD+ SPA); format: biochemical; conditions: 6 nM TNKS1, auto-parsylation, over night at room temperature
T1 construct: purchased BPS Bioscience, San Diego, USA 80579 (TNKS1 Histone Ribosylation Assay Kit)
T1 sequence (O95271 1-1327): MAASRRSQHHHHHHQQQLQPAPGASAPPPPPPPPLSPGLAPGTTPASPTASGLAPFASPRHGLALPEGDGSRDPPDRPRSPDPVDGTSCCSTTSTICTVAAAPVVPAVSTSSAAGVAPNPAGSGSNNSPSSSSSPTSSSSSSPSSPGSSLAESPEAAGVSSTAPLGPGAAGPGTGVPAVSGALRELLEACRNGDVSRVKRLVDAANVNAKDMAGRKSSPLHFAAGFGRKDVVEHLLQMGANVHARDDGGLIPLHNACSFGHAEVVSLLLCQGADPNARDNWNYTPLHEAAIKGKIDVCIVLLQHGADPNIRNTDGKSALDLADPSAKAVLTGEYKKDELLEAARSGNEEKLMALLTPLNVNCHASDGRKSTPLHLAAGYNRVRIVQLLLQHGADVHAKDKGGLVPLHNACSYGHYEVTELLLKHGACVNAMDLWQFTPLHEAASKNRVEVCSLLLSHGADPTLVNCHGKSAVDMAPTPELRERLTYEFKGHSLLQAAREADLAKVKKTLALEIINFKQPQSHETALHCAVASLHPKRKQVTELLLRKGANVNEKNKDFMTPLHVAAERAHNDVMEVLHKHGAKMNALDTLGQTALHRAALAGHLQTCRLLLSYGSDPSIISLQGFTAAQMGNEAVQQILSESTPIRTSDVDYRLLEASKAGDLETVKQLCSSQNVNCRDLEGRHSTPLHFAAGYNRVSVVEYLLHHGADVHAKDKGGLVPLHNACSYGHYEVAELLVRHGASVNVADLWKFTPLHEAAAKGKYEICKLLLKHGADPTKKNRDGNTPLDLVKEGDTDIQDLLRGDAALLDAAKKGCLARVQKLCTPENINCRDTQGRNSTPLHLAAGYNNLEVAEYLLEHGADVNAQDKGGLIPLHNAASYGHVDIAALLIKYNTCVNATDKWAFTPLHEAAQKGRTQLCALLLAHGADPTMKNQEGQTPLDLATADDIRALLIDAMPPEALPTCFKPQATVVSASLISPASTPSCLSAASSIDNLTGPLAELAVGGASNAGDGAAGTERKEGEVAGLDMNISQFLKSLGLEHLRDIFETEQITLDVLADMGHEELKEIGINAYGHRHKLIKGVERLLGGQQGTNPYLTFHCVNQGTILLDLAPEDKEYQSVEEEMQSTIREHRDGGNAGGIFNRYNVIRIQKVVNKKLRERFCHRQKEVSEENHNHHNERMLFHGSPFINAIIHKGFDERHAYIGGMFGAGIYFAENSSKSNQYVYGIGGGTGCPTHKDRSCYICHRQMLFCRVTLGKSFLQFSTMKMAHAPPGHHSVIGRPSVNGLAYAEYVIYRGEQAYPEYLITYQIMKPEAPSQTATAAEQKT

Row | Structure (SMILES) | IC50 [1] [µM] | IC50 [2] [nM]
1 | CNC(=O)c1[nH]cnc1C(=O)N[C@@H]1CC[C@@H](C(=O)Nc2ccc(F)cc2Cl)C[C@@H]1F (racemic) [Example 31, N^4-{(1α,2α,4β)-4-[(2-chloro-4-fluorophenyl)carbamoyl]-2-fluorocyclohexyl}-N^5-methyl-1H-imidazole-4,5-dicarboxamide] | ≥ 50 | 150
2 | CNC(=O)c1[nH]cnc1C(=O)N[C@@H]1CC[C@@H](C(=O)Nc2ccc(F)cc2Cl)C[C@H]1OC (racemic) [Example 35, N^4-{(1α,2β,4β)-4-[(2-chloro-4-fluorophenyl)carbamoyl]-2-methoxycyclohexyl}-N^5-methyl-1H-imidazole-4,5-dicarboxamide] | ≥ 50 | > 10000
3 | CNC(=O)c1[nH]cnc1C(=O)N[C@H]1CC[C@H](C(=O)Nc2ccc(F)cc2Cl)CC1(F)F (single isomer, unassigned) [Example 33, N^4-{(trans)-4-[(2-chloro-4-fluorophenyl)carbamoyl]-2,2-difluorocyclohexyl}-N^5-methyl-1H-imidazole-4,5-dicarboxamide] | ≥ 50 | 720
4 | CNC(=O)c1[nH]cnc1C(=O)NC1CCC(C(=O)Nc2ccc(F)cc2Cl)CC1C (single isomer, unassigned) [Example 41, N^4-{4-[(2-chloro-4-fluorophenyl)carbamoyl]-2-methylcyclohexyl}-N^5-methyl-1H-imidazole-4,5-dicarboxamide] | ≥ 50 | > 10000
5 | O=C(NC1CCC(F)(C(=O)Nc2ccc(F)cc2Cl)CC1)c1cnn2cccnc12 (single isomer, unassigned) [Example 365, N-{4-[(2-chloro-4-fluorophenyl)carbamoyl]-4-fluorocyclohexyl}pyrazolo[1,5-a]pyrimidine-3-carboxamide (single isomer)] | 35 | > 10000
6 | CNC(=O)c1[nH]cnc1C(=O)NC1CCC(F)(C(=O)Nc2ccc(F)cc2Cl)CC1 (single isomer, unassigned) [Example 366, N^4-{4-[(2-chloro-4-fluorophenyl)carbamoyl]-4-fluorocyclohexyl}-N^5-methyl-1H-imidazole-4,5-dicarboxamide (single isomer)] | ≥ 50 | > 10000
7 | CNC(=O)c1[nH]cnc1C(=O)N[C@@H]1CC[C@@H](C(=O)Nc2ccc(F)cc2Cl)CC1(F)F (stereo in doubt) [Example 32, N^4-{(trans)-4-[(2-chloro-4-fluorophenyl)carbamoyl]-2,2-difluorocyclohexyl}-N^5-methyl-1H-imidazole-4,5-dicarboxamide] | ≥ 50 | 360
8 | O=C(NCC1CCCO1)c1nc[nH]c1C(=O)N[C@H]1CC[C@H](C(=O)Nc2c(F)cc(F)cc2Cl)CC1 (stereo in doubt) [Example 71, N^5-{trans-4-[(2-chloro-4,6-difluorophenyl)carbamoyl]cyclohexyl}-N^4-[(2R)-tetrahydrofuran-2-ylmethyl]-1H-imidazole-4,5-dicarboxamide] | 23 | 180
9 | CNC(=O)c1nc[nH]c1C(=O)N[C@H]1CC[C@H](C(=O)Nc2ccc(F)cc2Cl)CC1 [Example 1, N^5-{trans-4-[(2-chloro-4-fluorophenyl)carbamoyl]cyclohexyl}-N^4-methyl-1H-imidazole-4,5-dicarboxamide] | ≥ 50 | 73
10 | O=C(N[C@H]1CC[C@H](C(=O)Nc2ccc(F)cc2Cl)CC1)c1[nH]cnc1C(=O)N1CC2(CCS2(=O)=O)C1 [Example 22, N-{trans-4-[(2-chloro-4-fluorophenyl)carbamoyl]cyclohexyl}-4-[(1,1-dioxido-1-thia-6-azaspiro[3.3]hept-6-yl)carbonyl]-1H-imidazole-5-carboxamide] | ≥ 50 | 10
11 | O=C(N[C@H]1CC[C@H](C(=O)Nc2ccc(F)cc2Cl)CC1)c1[nH]cnc1C(=O)N1CCC1 [Example 23, 4-(azetidin-1-ylcarbonyl)-N-{trans-4-[(2-chloro-4-fluorophenyl)carbamoyl]cyclohexyl}-1H-imidazole-5-carboxamide] | ≥ 50 | 21
12 | COC1CN(C(=O)c2nc[nH]c2C(=O)N[C@H]2CC[C@H](C(=O)Nc3ccc(F)cc3Cl)CC2)C1 [Example 24, 4 N-{trans-4-[(2-chloro-4-fluorophenyl)carbamoyl]cyclohexyl}-4-[(3-methoxyazetidin-1-yl)carbonyl]-1H-imidazole-5-carboxamide] | ≥ 50 | 21
13 | O=C(NCCN1CC2(CCO2)C1)c1nc[nH]c1C(=O)N[C@H]1CC[C@H](C(=O)Nc2ccc(F)cc2Cl)CC1 [Example 25, N^5-{trans-4-[(2-chloro-4-fluorophenyl)carbamoyl]cyclohexyl}-N^4-[2-(1-oxa-6-azaspiro[3.3]hept-6-yl)ethyl]-1H-imidazole-4,5-dicarboxamide] | ≥ 50 | 13
14 | CN(C)C1CN(C(=O)c2nc[nH]c2C(=O)N[C@H]2CC[C@H](C(=O)Nc3ccc(F)cc3Cl)CC2)C1 [Example 26, N-{trans-4-[(2-chloro-4-fluorophenyl)carbamoyl]cyclohexyl}-4-{[3-(dimethylamino)azetidin-1-yl]carbonyl}-1H-imidazole-5-carboxamide] | ≥ 50 | 62
15 | CNC(=O)c1nc[nH]c1C(=O)N[C@H]1CC[C@H](C(=O)Nc2c(Br)cc(F)c(F)c2F)CC1 [Example 27, N^5-{trans-4-[(6-bromo-2,3,4-trifluorophenyl)carbamoyl]cyclohexyl}-N^4-methyl-1H-imidazole-4,5-dicarboxamide] | ≥ 50 | 30
16 | CNC(=O)c1nc[nH]c1C(=O)N[C@H]1CC[C@H](C(=O)Nc2c(F)cc(F)cc2Br)CC1 [Example 28, N^5-{trans-4-[(6-bromo-2,4-difluorophenyl)carbamoyl]cyclohexyl}-N^4-methyl-1H-imidazole-4,5-dicarboxamide] | ≥ 50 | 68
17 | CNC(=O)c1ncoc1C(=O)N[C@H]1CC[C@H](C(=O)Nc2ccc(F)cc2Cl)CC1 [Example 29, N^5-{trans-4-[(2-chloro-4-fluorophenyl)carbamoyl]cyclohexyl}-N^4-methyl-1,3-oxazole-4,5-dicarboxamide] | ≥ 50 | 650
18 | CNC(=O)c1ocnc1C(=O)N[C@H]1CC[C@H](C(=O)Nc2ccc(F)cc2Cl)CC1 [Example 30] | 40 | > 10000
19 | Cc1cc(C)n2ncc(C(=O)NC3CCC(C(=O)Nc4ccc(F)cc4Cl)CC3C)c2n1 (centres unmarked) [Example 42, N-{4-[(2-chloro-4-fluorophenyl)carbamoyl]-2-methylcyclohexyl}-5,7-dimethylpyrazolo[1,5-a]pyrimidine-3-carboxamide] | ≥ 50 | 120
20 | O=C(N[C@H]1CC[C@H](C(=O)Nc2ccc(F)cc2Cl)CC1)c1cnn2cccnc12 [Example 43, N-{trans-4-[(2-chloro-4-fluorophenyl)carbamoyl]cyclohexyl}pyrazolo[1,5-a]pyrimidine-3-carboxamide] | ≥ 50 | 81
21 | Cc1cc(C)n2ncc(C(=O)N[C@H]3CC[C@H](C(=O)Nc4ccc(F)cc4Cl)CC3)c2n1 [Example 44, N-{trans-4-[(2-chloro-4-fluorophenyl)carbamoyl]cyclohexyl}-5,7-dimethylpyrazolo[1,5-a]pyrimidine-3-carboxamide] | ≥ 50 | 48
22 | O=C(N[C@H]1CC[C@H](C(=O)Nc2ccc(F)cc2Cl)CC1)c1cnc2cccnn12 [Example 45, N-{trans-4-[(2-chloro-4-fluorophenyl)carbamoyl]cyclohexyl}imidazo[1,2-b]pyridazine-3-carboxamide] | ≥ 50 | 310
